Assay [1] deals with HCT116 MTAP−/−. Briefly: Inhibition of cellular proliferation (Cell Titer Glo), HCT116 MTAP-/-. The assay is classed as cell-based. The following applies: Homo sapiens, HCT-116, 96 h, 4 days, read-out: 4 Day Relative Growth Inhibition (MTAP −/−). The procedure:
(§1) Test compound impact on cancer cell growth was assessed by treating cancer cells with compound for 4 days and then measuring proliferation using an ATP-based cell proliferation readout (Cell Titer Glo, Promega Corporation).
(§2) In a typical assay an isogenic pair of HCT116 human colon carcinoma cell lines which vary only in MTAP deletion status (HCT116 MTAP+/+ and HCT116 MTAP−/−) were plated in 96-well dishes at appropriate cell density. Following 24 hours, cells were then treated with the candidate MAT2A inhibitor. Prior to addition to cells, the compound was first serially diluted in 100% DMSO, typically as a 3-fold serial dilution starting at 500× top dose with 10 dose points including DMSO only control. Compound was then transferred to a working stock plate in cell culture media by adding 5 μL of compound in DMSO to 495 μL of cell culture media. This working stock was then added to cells via a further 5-fold dilution, by adding 25 μL of working stock to 100 μL of cells in culture media. Following compound addition, cells were incubated at 37° C./5% CO2 for 4 days.
(§3) To measure inhibition of cellular proliferation, cells were allowed to equilibrate to room temperature for 30 minutes, and were then treated with 125 μL of Cell Titer Glo reagent. The plate was then covered with aluminum foil and shaken for 15 minutes to ensure complete mixing and full cell lysis. Luminescent signal was then measured using a plate-based luminometer Veritas version 1.9.2 using ATP standard curve to confirm assay reproducibility from run to run. This luminescence measure was converted to a proliferation index by subtracting from each data point the ATP luminescence signal measured from a bank (no cells) well and dividing by the ATP luminescence signal measured in 0.2% DMSO control well adjusted for signal in blank well. Compound activity was then represented as a percentage change in proliferation relative to a within-plate DMSO control against log 10 of compound concentration in molar (M) units.
(In general: In ATP-based viability assays light output follows the ATP content of the culture.)

Assay [2] deals with T1, MAT2A homodimer (Homo sapiens, UniProt P31153).
T1 construct: inferred from Ni sepharose purification and imidazole elution; made in house; host or cells: SF9 insect cells, recombinant baculovirus (Bac to Bac, pFASTBAC1)
T1 sequence (P31153 whole entry): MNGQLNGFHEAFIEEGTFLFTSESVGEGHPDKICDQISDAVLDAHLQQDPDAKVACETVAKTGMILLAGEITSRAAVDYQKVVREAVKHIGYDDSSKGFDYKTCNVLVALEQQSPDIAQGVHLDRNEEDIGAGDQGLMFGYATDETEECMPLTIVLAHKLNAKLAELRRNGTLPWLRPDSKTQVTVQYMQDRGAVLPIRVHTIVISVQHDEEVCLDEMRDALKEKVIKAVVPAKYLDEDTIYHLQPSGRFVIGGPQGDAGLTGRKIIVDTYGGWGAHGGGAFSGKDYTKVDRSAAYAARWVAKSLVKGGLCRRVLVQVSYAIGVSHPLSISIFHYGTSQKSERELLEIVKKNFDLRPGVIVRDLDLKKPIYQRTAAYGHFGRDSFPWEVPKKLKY
Briefly: MAT2A biochemical assay (phosphate release, PiColorLock Gold). The following applies: recombinant MAT2A homodimer, 60 min pre-incubation, 25° C.; read-out: Enzyme Inhibition. The procedure: Mat2A protein was expressed by recombinant baculovirus in SF9 infected cells using the Bac to Bac system cloned into the pFASTBAC1 vector (Invitrogen, Carlsbad, CA). Recombinant MAT2A was isolated from the cell lysate of 150 g of infected cells using HP Ni sepharose column chromatography. Recombinant MAT2A homodimer was eluted with 250 and 500 mM imidazole, and fractions containing MAT2A were identified by sodium dodecyl sulfate polyacrylamide gel electrophoresis and pooled.
For determination of the inhibitory potency of compounds against the MAT2A homodimer, protein was diluted to 4 μg/mL in assay buffer (50 mM Tris, pH 8.0, 50 mM KCl, 15 mM MgCl2, 0.3 mM EDTA, 0.005% [w/v] bovine serum albumin [BSA]). Test compound was prepared in 100% dimethyl sulfoxide (DMSO) at 50× the desired final concentration. A 1 μL volume of compound dilution was added to 40 μL of enzyme dilution and the mixture was allowed to equilibrate for 60 minutes at 25° C. The enzymatic assay was initiated by the addition of 10 μL of substrate mix (500 μM ATP, pH 7.0, 400 μM L-methionine in 1× assay buffer), and the mixture was incubated for a further 60 minutes at 25° C. The reaction was halted and the liberated phosphate released by the enzyme in stoichiometric amounts by the production of S-adenosyl methionine (SAM) was measured using the PiColorLock Gold kit (Innova Biosciences, UK). Absolute product amounts were determined by comparison to a standard curve of potassium phosphate buffer, pH 8.0.

The subject of assay [3] is HCT116 MTAP+/+. Briefly: Inhibition of cellular proliferation (Cell Titer Glo), HCT116 MTAP+/+. The assay is classed as cell-based. The conditions noted are these: Homo sapiens, HCT-116, 96 h, 4 days, read-out: 4 Day Relative Growth Inhibition (MTAP +/+). The procedure: as §1, §2, §3
Assay [4] concerns MAT2A activity (SAM) in HCT116 cells with deleted MTAP gene. Briefly: Cellular assay of target engagement (SAM) by LC-MS/MS. The assay is classed as cell-based. The following applies: Homo sapiens, HCT-116; HCT116 MTAP −/−, 72 hrs; read-out: Cell 72 h SAM Inhibition (MTAP −/−). On the procedure: Measurement of MAT2A activity in cells was made by direct quantitation of the abundance of the product of its enzymatic activity, SAM. Cancer cells were treated with candidate MAT2A inhibitors for a suitable incubation period, and the cells were then lysed using a reagent which quenched any further enzyme activity. Soluble metabolites including SAM were collected and SAM itself was directly measured from the lysate using quantitative LC-MS/MS.
A typical assay was performed using an HCT116 human colon carcinoma cell line which was genetically engineered to delete the MTAP gene (commercially available from Horizon Discovery). This cell line was utilized because it was determined that loss of the MTAP gene predicts sensitivity to MAT2A inhibitors. Cells were plated in 96-well dishes at appropriate cell density. Following 24 hours, cells were then treated with the candidate MAT2A inhibitor. Prior to addition to cells, the compound was first serially diluted in 100% DMSO, typically as a 3-fold serial dilution starting at 500× top dose with 10 dose points including DMSO only control. Compound was then transferred to a working stock plate in cell culture media by adding 5 μL of compound in DMSO to 495 μL of cell culture media. This working stock was then added to cells via a further 5-fold dilution, by adding 25 μL of working stock to 100 μL of cells in culture media. Following compound addition, cells were incubated at 37° C./5% CO2 for 72 hrs.
To quantitate SAM levels following compound treatment, cells were gently washed once in ammonium carbonate buffer (75 mM at pH 7.4), placed on dry ice, and lysed with metabolite extraction buffer (80% cold methanol and 20% water (v/v) with acetic acid at 1M final concentration with 200 ng/mL deuterated d3-SAM as internal control). Following centrifugation at 4° C. at 3,200 rpm for 30 minutes, the supernatant was collected and stored at −80° C. until analysis by Liquid Chromatography with tandem Mass Spectrometry (LC-MS/MS). LC-MS/MS analysis was performed using an API6500 Mass Spectrometer (Sciex, Framingham, MA, USA) operating in positive ion spray mode and equipped with a Waters UPLC Acquity (Waters, Milford, MA, USA) BEH Amide column. Multiple Reaction Monitoring data was acquired for SAM and the d3-SAM standard, using a mass transition pair at m/z 399.2→250.1 and 402.2→250.1, respectively. In a typical LC-MS/MS analysis, the initial flow rate was 0.5 ml/min of 25% mobile phase A (acetonitrile and water at 5:95 (v/v) with 1% formic acid and 10 mM ammonium acetate) and 75% mobile phase B (acetonitrile and water at 95:5 (v/v) with 1% formic acid and 10 mM ammonium acetate), 0.2-0.5 minutes with 75%-35% mobile phase B, 25%-65% mobile phase A, at 0.5 min 65% mobile phase A and 35% mobile phase B, 1.0-1.1 minutes with 35%-75% mobile phase B, 65%-25% mobile phase A, at 1.1 min 25% mobile phase A and 75% mobile phase B with a total run time of 1.5 minutes.

With `Cc1c2cc(-n3nc4ccc(OCC(F)F)nc4c(-c4ccc(OC(F)F)cc4)c3=O)ccc2nn1C` [Example 166, 6-(2,2-difluoroethoxy)-4-(4-(difluoromethoxy)phenyl)-2-(2,3-dimethyl-2H-indazol-5-yl)pyrido[3,2-c]pyridazin-3(2H)-one], the IC50 was below 100 nM in assay [1], below 100 nM in assay [2], at least 1000 nM in assay [3] and below 100 nM in assay [4].
For the compound `Cn1cc2cc(-n3nc4ccc(NCC(F)(F)F)nc4c(-c4ccc(C(F)F)nc4)c3=O)ccc2n1` [Example 317], the IC50 in assay [1] is below 100 nM; in assay [2], below 100 nM; in assay [3], at least 1000 nM; in assay [4], below 100 nM.
Regarding `O=c1c(-c2ccc(OC(F)F)cc2)c2nc(OCC(F)F)ccc2nn1-c1ccc2ncccc2c1` [Example 183], the IC50 is below 100 nM in assay [1], below 100 nM in assay [2], 100 to 1000 nM in assay [3] and below 100 nM in assay [4].
With `Cn1cc2cc(-n3nc4ccc(NC5CC5)nc4c(-c4ccc(OC(F)F)cc4)c3=O)ccc2n1` [Example 162], the IC50 was below 100 nM in assay [1], below 100 nM in assay [2], at least 1000 nM in assay [3] and below 100 nM in assay [4].
In the case of `Cn1cc2cc(-n3nc4ccc(NC5CC5)nc4c(-c4ccc(Cl)cc4)c3=O)ccc2n1` [Example 155], the IC50 in assay [1] was below 100 nM; in assay [2], below 100 nM; in assay [3] it was at least 1000 nM; in assay [4] it was below 100 nM.
Consider `Cn1cc2cc(-n3nc4ccc(OCC(F)F)nc4c(-c4ccc(OC(F)F)nc4)c3=O)ccc2n1` [Example 126], for which the IC50 in assay [1] was below 100 nM; in assay [2] it was below 100 nM; in assay [3], at least 1000 nM; in assay [4] it was below 100 nM.
`COc1c2cc(-n3nc4ccc(OCC(F)F)nc4c(-c4ccc(Cl)cc4)c3=O)ccc2nn1C` [Example 174]: the IC50 in assay [1] was below 100 nM; in assay [2], below 100 nM; in assay [3] it was at least 1000 nM; in assay [4] it was below 100 nM.
Take `Cn1cnc2ccc(-n3nc4ccc(OCC(F)F)nc4c(-c4ccc(OC(F)F)cc4)c3=O)cc21` [Example 167, 6-(2,2-difluoroethoxy)-4-(4-(difluoromethoxy)phenyl)-2-(1-methyl-1H-benzo[d]imidazol-6-yl)pyrido[3,2-c]pyridazin-3(2H)-one]: the IC50 was below 100 nM in assay [1], below 100 nM in assay [2], at least 1000 nM in assay [3] and below 100 nM in assay [4].
As for `CCNc1ccc2nn(-c3ccc4nn(C)cc4c3)c(=O)c(-c3ccc(C4CC4)nc3)c2n1` [Example 309], the IC50 is below 100 nM in assay [1], below 100 nM in assay [2], at least 1000 nM in assay [3] and below 100 nM in assay [4].
Consider `CCNc1ccc2nn(-c3ccc4nn(C)cc4c3)c(=O)c(-c3ccc(Cl)cc3)c2n1` [Example 103, 4-(4-chlorophenyl)-6-(ethylamino)-2-(2-methyl-2H-indazol-5-yl)pyrido[3,2-c]pyridazin-3(2H)-one], for which the IC50 was below 100 nM in assay [1], below 100 nM in assay [2], at least 1000 nM in assay [3] and below 100 nM in assay [4].
Regarding `COc1ccc(-c2c(=O)n(-c3ccc4ncsc4c3)nc3ccc(OCC(F)F)nc23)cc1` [Example 144], the IC50 in assay [1] was below 100 nM; in assay [2], below 100 nM; in assay [3], at least 1000 nM; in assay [4], below 100 nM.
As for `Cn1cc2cc(-n3nc4ccc(OCCC(F)(F)F)nc4c(-c4ccc(OC(F)F)cc4)c3=O)ccc2n1` [Example 132], the IC50 in assay [1] is 100 to 1000 nM; in assay [2], below 100 nM; in assay [3], at least 1000 nM; in assay [4], 100 to 1000 nM.
As to `CCOc1ccc2nn(-c3ccc4nn(C)cc4c3)c(=O)c(-c3ccc(Cl)cc3)c2n1` [Example 119], the IC50 was below 100 nM in assay [1], below 100 nM in assay [2], at least 1000 nM in assay [3] and below 100 nM in assay [4].
Regarding `CCOc1nc2c(-c3ccc(OC(F)F)cc3)c(=O)n(-c3ccc4nn(C)cc4c3)nc2cc1F` [Example 195], the IC50 is at least 1000 nM in assay [1], below 100 nM in assay [2], at least 1000 nM in assay [3] and below 100 nM in assay [4].
As for `CCOc1ccc2nn(-c3ccc4ncsc4c3)c(=O)c(-c3ccc(OC(F)F)cc3)c2n1` [Example 145], the IC50 in assay [1] was below 100 nM; in assay [2], below 100 nM; in assay [3], at least 1000 nM; in assay [4], below 100 nM.
For the compound `CC(C)COc1ccc2nn(-c3ccc4nn(C)cc4c3)c(=O)c(-c3ccc(OC(F)F)cc3)c2n1` [Example 141], the IC50 was 100 to 1000 nM in assay [1], below 100 nM in assay [2], at least 1000 nM in assay [3] and below 100 nM in assay [4].
For `O=c1c(-c2ccc(OC(F)F)cc2)c2nc(OCC(F)F)ccc2nn1-c1ccc2c(c1)CCO2` [Example 178], the IC50 in assay [1] is below 100 nM; in assay [2], below 100 nM; in assay [3] it was 100 to 1000 nM; in assay [4], below 100 nM.
In the case of `Cn1cc2cc(-n3nc4ccc(OCCF)nc4c(-c4ccc(OC(F)F)cc4)c3=O)ccc2n1` [Example 129], the IC50 in assay [1] is below 100 nM; in assay [2], below 100 nM; in assay [3] it was at least 1000 nM; in assay [4], below 100 nM.
As to `COc1c2cc(-n3nc4ccc(OCC(F)F)nc4c(-c4ccc(OC(F)F)cc4)c3=O)ccc2nn1C` [Example 171], the IC50 was below 100 nM in assay [1], below 100 nM in assay [2], at least 1000 nM in assay [3] and below 100 nM in assay [4].

Source of the values: patent publication US12077534B2, “Aza-heterobicyclic inhibitors of MAT2A and methods of use for treating cancer” (Les Laboratoires Servier SAS, priority 2018, dated 2024).
